Source: US10005733B2, “N-(4-hydroxy-4-methyl-cyclohexyl)-4-phenyl-benzenesulfonamide and N-(4-hydroxy-4-methyl-cyclohexyl)-4-(2-pyridyl)-benzenesulfonamide compounds and their therapeutic use” (PIMCO 2664 LIMITED, priority 2014, dated 2018)
Like-named read-outs stand apart in the source and are kept apart here.

How the values were obtained:
[1] = Rodent Pharmacokinetics Studies; assay type: in vivo, rat; conditions: for bioavailability / half-life: rat, plasma; for bioavailability: read-out: Bioavail, F (%)
Experimental: Absorption and metabolic stability were studied using an in vivo pharmacokinetics assay.
[…] […] For compound HMC-C-01-A the oral administration was formulated in 2% dimethylacetamide/20% hydroxypropyl-β-cyclodextrin in water. Animals were given free access to food throughout the study except for fasting overnight and until 2 hours post dose on the day of dosing.
Blood samples were taken from the retro-orbital plexus at the following time points and placed in microtubes containing 20% K2EDTA solution: […]
Blood samples were centrifuged to obtain plasma, which was transferred to a separate container and frozen at −20° C.
For analysis, samples were thawed at room temperature and prepared by protein precipitation with acetonitrile spiked with internal standard (500 ng/mL glipizide) in the ratio 1:4 with plasma. The samples were then vortexed for 5 minutes and centrifuged for 10 minutes at 20,600×g at 4° C. 100 μL of the supernatant was collected for analysis.
The pharmacokinetic parameters for the test compounds were calculated by Phoenix WinNonlin version 6.3 (Pharsight Corp, CA) using standard non-compartmental methods. Peak plasma concentrations (Cmax) and time of the peak plasma concentration (Tmax) were the observed values. The area under the plasma concentration-time curve (AUC) was determined by use of the linear trapezoidal rule up to the last measurable concentration (AUClast) and thereafter by extrapolation of the terminal elimination phase to infinity (AUCinf). The terminal elimination rate constant (kel) was determined by regression analysis of the linear terminal portion of the log plasma concentration-time curve. The elimination phase half-life (t1/2) was calculated as 0.693/kel.

[2] = tested on: mice with collagen-induced arthritis; experiment: Mouse Collagen-Induced Arthritis; assay type: in vivo; conditions: for % inhibition of disease: oral gavage once daily for 14 days, arthritic index vs control
Experimental: Seven- to eight-week-old male DBA/1j mice were used for all procedures. Animals were housed in groups of 10, and were maintained at 21° C.±2° C. on a 12-hour light/dark cycle with food and water ad libitum. Complete Freund's adjuvant (CFA) was prepared by emulsifying bovine type II collagen at 4 mg/mL with a 4 mg/mL suspension of Mycobacterium tuberculosis H37Ra in Incomplete Freund's adjuvant (IFA) (0.85 mL paraffin oil and 0.15 mL mannide monooleate) in a 1:1 (v/v) ratio. All mice were immunised subcutaneously with 200 μg of bovine type II collagen in CFA. 21 days later, all mice were immunised subcutaneously with 100 μg of bovine type II collagen in IFA. The mice started to develop signs and symptoms of arthritis following the ‘booster’ immunisation.
For macroscopic assessment of arthritis, the following signs were monitored in each paw of each mouse three times per week and summed to generate the Arthritic Index (AI) (the maximum AI for one animal is 16): • 0=no visible effects of arthritis. • 1=oedema and/or erythema of 1 digit. • 2=oedema and/or erythema of 2 digits. • 3=oedema and/or erythema of more than 2 digits. • 4=severe arthritis of entire paw and digits.
Animals were sorted into treatment groups with a mean arthritic index of 2.5 and then dosed once daily for 14 days with compound by oral gavage for test compounds, or by subcutaneous injection at a dose of 10 mg/kg for the positive control, etanercept. After completion of the experiment, the mice were sacrificed.
The data were analysed by generating an average of the arthritic index across each treatment group. The mean arthritic index was then compared to the arthritic index of control (untreated) animals using the following formula to generate a percentage inhibition of disease.

[3] = tested on: IL-6 release from Thp1 macrophages; experiment: Thp1 Macrophage IL-6 Release Assay (LPS-stimulated); assay type: cell-based; conditions: Homo sapiens, THP-1, 18 h, 100 ng/mL LPS
Text: Anti-inflammatory effects were further characterised by assessing the production of interleukin-6 (IL-6) by human Thp-1 derived macrophages stimulated with a pro-inflammatory stimulus bacterial lipopolysaccharide (LPS). LPS acts with a cell-surface receptor, Toll-like receptor-4 to activate the NFκB and IRF signalling pathways to produce IL-6. The reduction of IL-6 in this stimulated assay is indicative of anti-inflammatory effects with utility in the treatment of conditions in which IL-6 production is aberrant. In vitro potency of test compounds in human cells was determined by incubation with Thp1 macrophages and subsequent stimulation with an inflammatory stimulus (bacterial lipopolysaccharide (LPS)) followed by measurement of cellular interleukin-6 (IL-6) release. […] The following day, the cells were stimulated with phorbol myristic acid (PMA) at a final concentration of 200 nM to induce differentiation and maintained for 3 days. Test compounds were prepared as […] solutions in DMSO and then serially diluted in DMSO prior to dilution in culture medium. The diluted compounds were added to the cultures 1 hour prior to stimulation with 100 ng/mL LPS. Compounds were tested in triplicate in a 9 point concentration response curve at concentrations of 30, 10, 3, 1, 0.3, 0.1, 0.03, 0.01 and 0.001 μM Following an 18 hour incubation at 37° C./5% CO2, the cell culture medium was collected and assayed for human IL-6 levels using the human IL-6 duo-set ELISA kit (R&D Systems). The average results for each test compound (n=3) were expressed as a percent (%) of the average control value. The average values across the concentrations tested were then plotted and the IC50 for the inhibition of IL-6 was calculated by fitting the data to a 4-parameter IC50 equation using GraphPad Prism software for Windows (Graph Pad Software, San Diego Calif. USA) or Grafit version 5 (Erithacus Software). Each experiment was repeated twice and the data are presented as the mean IC50 from both experiments.

[4] = male Han Wistar rats, 1 mg/kg intravenous, 5% DMSO/10% solutol in saline
[5] = male Han Wistar rats, 5 mg/kg orally, 0.5% CMC/0.1% Tween-80
[6] = 5 mg/kg, male Han Wistar rats, oral in 0.5% CMC/0.1% Tween-80, i.v. in 5% DMSO/10% solutol in saline
[7] = footnote (2): Thp1 cells plated at 1.7 × 10^5 cells/well, GraphPad Prism
[8] = footnote (1): Thp1 cells plated at 3 × 10^5 cells/well, Grafit

Cc1cc(S(=O)(=O)N[C@H]2CC[C@H](O)CC2)ccc1-c1ccc(F)cc1F [ABD735, reference compound]
i.v. AUC [1, 4]: 1081 ng/mL/min | p.o. AUC (ng/mL/min) [1, 5]: 8965 ^(4) ng/mL/min | bioavailability [1, 6]: 83% | % inhibition of disease ([2]; 10 mg/kg/day): 44%

C[C@]1(O)CC[C@H](NS(=O)(=O)c2ccc(-c3ccc(C#N)cc3Cl)cc2)CC1 [HMC-C-09-A, 2′-Chloro-4′-cyano-N-((1r,4r)-4-hydroxy-4-methylcyclohexyl)-[1,1′-biphenyl]-4-sulfonamide]
IC50 [3, 7]: 170 nM

C[C@]1(O)CC[C@@H](NS(=O)(=O)c2ccc(-c3cc(F)c(F)cc3F)cc2)CC1 [HMC-C-10-B, 2′,4′,5′-Trifluoro-N-((1s,4s)-4-hydroxy-4-methylcyclohexyl)-[1,1′-biphenyl]-4-sulfonamide]
IC50 [3, 7]: 550 nM

C[C@]1(O)CC[C@H](NS(=O)(=O)c2ccc(-c3ccc(Cl)cc3C#N)c(Cl)c2)CC1 [HMC-C-11-A, 2,4′-Dichloro-2′-cyano-N-((1r,4r)-4-hydroxy-4-methylcyclohexyl)-[1,1′-biphenyl]-4-sulfonamide]
IC50 [3, 7]: 260 nM

C[C@]1(O)CC[C@@H](NS(=O)(=O)c2ccc(-c3ccc(F)cc3F)cc2)CC1 [ABD899, reference compound]
i.v. AUC [1, 4]: 2133 ng/mL/min | p.o. AUC (ng/mL/min) [1, 5]: 10740 ^(4) ng/mL/min | bioavailability [1, 6]: 50% | IC50 [3, 8]: 30 nM | IC50 [3, 7]: 40 nM | % inhibition of disease ([2]; 10 mg/kg/day): 77%

C[C@]1(O)CC[C@H](NS(=O)(=O)c2ccc(-c3ccc(F)cc3F)cc2)CC1 [ABD900]
IC50 [3, 8]: 90 nM | IC50 [3, 7]: 110 nM

C[C@]1(O)CC[C@@H](NS(=O)(=O)c2ccc(-c3ccc(C#N)cc3)c(F)c2)CC1 [HMC-C-07-B, 4′-Cyano-2-fluoro-N-((1s,4s)-4-hydroxy-4-methylcyclohexyl)-[1,1′-biphenyl]-4-sulfonamide]
bioavailability ([1]; male, Han Wistar, iv, 5 mg/kg, rats, footnote (3): i.v. samples at 0.03, 0.1, 0.167, 0.25, 0.5, 1, 2, 4, 6, 8, 24 hours): 86% | half-life ([1]; male, Han Wistar, rats, footnotes (1)(2): 5% DMSO/10% solutol in saline for both routes): 9.7 h | half-life ([1]; male, Han Wistar, rats, study of footnote (3)): 9 h | bioavailability ([1]; male, Han Wistar, rats, footnotes (1)(2): 5% DMSO/10% solutol in saline for both routes, sampling incl. 23 and 24 hours, oral 10 mg/kg): 100% | i.v. AUC ([1]; rats, 1 mg/kg i.v., footnote (3): i.v. samples at 0.03, 0.1, 0.167, 0.25, 0.5, 1, 2, 4, 6, 8, 24 hours): 11627 ng/mL/min | p.o. AUC ([1]; rats, 5 mg/kg orally, study of footnote (3)): 39463 ng/mL/min | p.o. AUC (ng/mL/min) ([1]; rats, footnotes (1)(2)(5): dosed at 10 mg/kg orally in 5% DMSO/10% solutol in saline): 146299 ^(5) ng/mL/min | i.v. AUC ([1]; rats, footnotes (1)(2): 1 mg/kg i.v. in 5% DMSO/10% solutol in saline, sampling incl. 23 and 24 hours): 24072 ng/mL/min | IC50 [3, 7]: 18 nM | % inhibition of disease ([2]; 0.3 mg/kg/day): 16% | % inhibition of disease ([2]; 3 mg/kg/day): 56% | signs and symptoms of disease (in words) ([2]; compared with Etanercept (10 mg/kg s.c.), FIG. 1 and 2): able to reduce signs and symptoms of disease in mice with collagen-induced arthritis to a similar extent as the clinically utilised treatment, Etanercept

C[C@]1(O)CC[C@H](NS(=O)(=O)c2ccc(-c3ccc(Cl)cc3C#N)c(F)c2)CC1 [HMC-C-08-A, 4′-Chloro-2′-cyano-2-fluoro-N-((1r,4r)-4-hydroxy-4-methylcyclohexyl)-[1,1′-biphenyl]-4-sulfonamide]
IC50 [3, 7]: 160 nM

C[C@]1(O)CC[C@H](NS(=O)(=O)c2ccc(-c3ncc(Cl)cc3C#N)cc2)CC1 [HMC-N-05-A, 4-(5-Chloro-3-cyanopyridin-2-yl)-N-((1r,4r)-4-hydroxy-4-methylcyclohexyl)benzenesulfonamide]
bioavailability ([1]; male, Han Wistar, 5 mg/kg, rats, footnote (1): 5% DMSO/10% solutol in saline for both oral and intravenous routes): 88% | half-life ([1]; male, Han Wistar, rats, footnote (1): 5% DMSO/10% solutol in saline for both routes): 0.8 h | i.v. AUC ([1]; rats, 1 mg/kg i.v., footnote (1): 5% DMSO/10% solutol in saline): 891 ng/mL/min | p.o. AUC ([1]; rats, 5 mg/kg orally, footnote (1): 5% DMSO/10% solutol in saline): 3937 ng/mL/min | IC50 [3, 7]: 300 nM

O=S(=O)(N[C@H]1CC[C@H](O)CC1)c1ccc(-c2ccc(F)cc2F)cc1 [ABD599, reference compound]
IC50 [3, 8]: 70 nM | IC50 [3, 7]: 190 nM
